Laboratory results published in patent US6753409B1, “STABLE NON-HYGROSCOPIC CRYSTALLINE FORM OF N-[N-[N-(4-(PIPERIDIN-4-YL)BUTANOYL)-N-ETHYLGLYCYL]ASPARTYL]-L-β-CYCLOHEXYL ALANINE AMIDE, INTERMEDIATES THEREOF, AND PREPARATION THEREOF AND OF ANTITHROMBOTIC AZACYCLOALKYLALKANOYL PEPTIDES AND PSEUDOPEPTIDES” (Aventis Pharmaceuticals Inc., priority 1996, dated 2004).
Read-outs that look alike come from different tables or passages of the source. One block for each compound: values may come before it.

Columns and labels:
[1] = tested on: fixed activated platelets; assay: Platelet Aggregation Assay (fixed-activated platelets, aggregation initiated by human fibrinogen); assay type: cell-based; settings: human fibrinogen 250 μg/mL, read-out: Inhibition of Fixed Platelet Aggregation (IC50 μM)
Source text: (§1) The Platelet Aggregation Assay is based on that described in Blood 66 (4), 946-952 (1985). The Fibrinogen-Binding Assay is essentially that of Ruggeri, Z. M., et al., Proc. Nail. Acad. Sci. USA 83, 5708-5712 (1986) and Plow, E. F., et al., Proc. Natl. Acad Sci., USA 82, 8057-8061 (1985). The Inhibition of ADP-lndticed ex-vivo Platelet Aggregation assay is based on that of Zucker, “Platelet Aggregation Measured by the Photoelectric Method”, Methods in Enzymology 169, 117-133 (1989).
Platelets are isolated from human platelet concentrates using the gel-filtration technique as described by Marguerie, G. A. et al., J. Biol. Chem. 254, 5357-5363 (1979) and Ruggeri, Z. M. et al., J. Clin. Invest. 72, 1-12 (1983). The platelets are suspended at a concentration of 2×10^8 cells/mL in a modified calcium-free Tyrode's buffer containing 127 mM sodium chloride, 2 mM magnesium chloride, 0.42 mM Na2HPO4, 11.9 mM NaHCO3, 2.9 mM KCl, 5.5 mM glucose, 10 mM HEPES, at a pH of 7.35 and 0.35% human serum albumin (HSA). […]
The fixed activated platelets are incubated with a selected dose of the compound to be tested for platelet aggregation inhibition for one minute andfaggregation initiated by addition of human fibrinogen to a final concentration of 250 μg/mL. […] The extent of inhibition of aggregation is expressed as the percentage of the rate of aggregation observed in the absence of inhibitor. […]

[2] = tested on: ADP-induced platelet aggregation in platelet rich plasma; assay: Inhibition of ADP-Induced ex-vivo Platelet Aggregation after oral administration; assay type: in vivo, mongrel dogs; settings: dog, 5 mg/kg; for % Inhibition of ex-vivo Platelet Aggregation After Oral Administration, 1 h: 1 h after dosing; for % Inhibition of ex-vivo Platelet Aggregation After Oral Administration, 3 h: 3 h after dosing
Source text: as §1
Control blood samples are obtained 5-10 minutes prior to administration of a test compound in mongrel dogs weighing from 10 to 20 Kg. The compound is administered intragasticly, via aqueous gavage, or orally, via gelatin capsule. Blood samples (5 ml) are then obtained at 30 minute intervals for 3 hours, and at 6, 12, and 24 hours after dosing. Each blood sample is obtained by venipuncture of the cephalic vein and is collected directly into a plastic syringe containing one part 3.8% trisodium citrate to nine parts blood.
The blood samples are centrifuged at 1000 rpm for 10 minutes to obtain platelet rich plasma (PRP). After removal of the PRP, the sample is centrifuged for an additional 10 minutes at 2000 rpm to obtain platelet poor plasma (PPP). Platelet count in the PRP is determined by using a Coulter Counter (Coulter Electronics, Hialeah, Fla.). If the concentration of platelets in the PRP is greater than 300,000 platelets/μL, then the PRP is diluted with PPP to adjust the platelet count to 300,000 platelets/μL. Aliquots of PRP (250 μL) are then placed in siliconized glass cuvettes (7.25×55 mm, Bio/Data Corp., Horsham, Pa.). Epinephrine (final concentration of 1 μM) is then added to the PRP, which is incubated for one minute at 37° C. A stimulator of platelet aggregation ADP at a final concentration of 10 μM, is then added to the PRP. Platelet aggregation is monitored spectrophotometrically utilizing a light transmission aggregometer (Bio/Data Platelet Aggregation Profiler, Model PAP-4, Bio/Data Corp., Horsham, Pa.). For the testing of a compound, the rate of change (slope) of light transmittance and the maximum light transmittance (maximum aggregation) is recorded in duplicate. Platelet aggregation data are reported as the percent decrease (mean±SEM) in slope or maximum aggregation as compared to data obtained from control PRP, which is prepared from blood samples obtained prior to administration of the test compound.

[3] = Hygroscopicity and physical stability of the material prepared according to WO95/10295 (statement); assay type: physicochemical
[4] = Moisture sorption isotherms (VTI MB300G moisture balance); assay type: physicochemical; settings: 25° C.; for desorption to original weight %: decreasing RH
Protocol: Moisture Sorption Isotherms of hygroscopic and non-hygroscopic crystalline forms of N-[N-[N-(4-piperdin-4-yl)butanoyl)-N-ethylglycyl]-(L)-aspartyl]-(L)-β-cyclohexylalanine amide are obtained on a VTI MB300G moisture balance. The experiments are conducted either by subjecting approximately 15 mg of the subject crystalline form to increasing and decreasing steps of % RH and following the weight gain (at each equilibrium step) as a function of % RH (FIG. 9) or by holding the subject crystalline form at constant humidity and following the weight gain as a function of time.

[5] = Isothermal microcalorimetry of solid state form conversion (Thermal Activity Monitor); assay type: physicochemical; settings: for thermal activity (form conversion) on exposure to humidity: 80% RH (saturated KCl solution), over 30 hours; for time for conversion of hygroscopic to non-hygroscopic form: 80% RH
Protocol: Isothermal microcalorimetry experiments on hygroscopic and non-hygroscopic crystalline forms of N-[N-[N-(4-piperdin-4-yl)butanoyl)-N-ethylglycyl]-(L)-aspartyl]-(L)-β-cyclohexylalanine amide are performed on a Thermometric® Thermal Activity Monitor (TAM). Solid state conversions of the different chrystalline forms are studied by exposing the forms to different humidities or solvent vapors at different temperatures. The saturated salt solutions used to obtain different humidities were: KCl (80% RH), NaCl (75% RH), and NaBr (65% RH). Approximately 100 mg quantities of the forms are weighed into a TAM glass ampule and a microhygrostate containing a saturated salt solution (with excess solid) or an organic solvent is placed inside the ampule. The ampule is sealed, equilibrated to the temperature of the experiment, and lowered into the measuring position in the TAM. An identical system containing washed sea sand, in place of the form subject to testing, is placed on the reference side. Output power (μW) is measured as a function of time (FIGS. 6-8).

IC50 ([1]; Platelet): 0.097 µM
SMILES: CCN(CC(=O)N[C@@H](CC(=O)O)C(=O)N[C@@H](CC1CCCCC1)C(N)=O)C(=O)CCCC1CCNCC1 [Example 15]
% Inhibition of ex-vivo Platelet Aggregation After Oral Administration, 1 h [2]: 100% | % Inhibition of ex-vivo Platelet Aggregation After Oral Administration, 3 h [2]: 100% | % Inhibition of ex-vivo Platelet Aggregation After Oral Administration, 6 h ([2]; 6 h after dosing): 100% | % Inhibition of ex-vivo Platelet Aggregation After Oral Administration, 12 h ([2]; 12 h after dosing): 98% | % Inhibition of ex-vivo Platelet Aggregation After Oral Administration, 24 h ([2]; 24 h after dosing): 50%

desorption to original weight % ([4]; listed as hygroscopic form): does not desorb to its original weight % | thermal activity (form conversion) on exposure to humidity ([5]; 40° C., listed as hygroscopic form): strong exothermic event takes place | time for conversion of hygroscopic to non-hygroscopic form ([5]; 40° C.): approximately 24 hours | time for conversion of hygroscopic to non-hygroscopic form ([5]; 50° C.): ~6.5 h | time for conversion of hygroscopic to non-hygroscopic form ([5]; 60° C.): ~3 h | liquification during conversion ([5]; 100% RH, 60° C.): without the liquification
SMILES: CCN(CC(=O)N[C@@H](CC(=O)O)C(=O)N[C@@H](CC1CCCCC1)C(N)=O)C(=O)CCCC1CCNCC1 [hygroscopic crystalline form]
% weight gain vs. % RH (water uptake) ([4]; increasing RH, more pronounced above 60% RH): picks up more water than the non-hygroscopic form as the RH increases | effect of relative humidity on rate of conversion to non-hygroscopic form ([5]; 60° C., 65% RH, 75% RH, 80% RH and 100% RH): higher relative humidities produce a faster conversion | thermal activity (form conversion) on exposure to methanol vapors ([5]; methanol vapors, 40° C.): no exothermic conversion event takes place

desorption to original weight % [4]: does desorb to its original weight %
SMILES: CCN(CC(=O)N[C@@H](CC(=O)O)C(=O)N[C@@H](CC1CCCCC1)C(N)=O)C(=O)CCCC1CCNCC1 [non-hygroscopic form]
thermal activity (form conversion) on exposure to humidity ([5]; 40° C.): no exothermic conversion event takes place

Second part, the compound before the results:

SMILES: O=C(O)C[C@H](NC(=O)CNC(=O)CCCC1CCNCC1)C(=O)N[C@@H](Cc1c[nH]c2ccccc12)C(=O)O [Compound of EPA ‘481, 4-4(piperidyl)butanoyl glycyl aspartyl tryptophan, reference compound]
IC50 [1]: 0.047 µM | % Inhibition of ex-vivo Platelet Aggregation After Oral Administration, 1 h [2]: 53% | % Inhibition of ex-vivo Platelet Aggregation After Oral Administration, 3 h [2]: <20%

SMILES: CCN(CC(=O)N[C@@H](CC(=O)O)C(=O)N[C@@H](CC1CCCCC1)C(N)=O)C(=O)CCCC1CCNCC1 [N-[N-[N-(4-(piperdin-4-yl)butanoyl)-N-ethylglycyl]-(L)-aspartyl]-(L)-β-cyclohexylalanine amide]
hygroscopicity and physical stability [3]: hygroscopic and is physically unstable as it absorbs moisture
